Data published in PubChem BioAssay (NCI).
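Assay format: 96-well plates, 48-hour exposure. At the TGI there is no net growth.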

Columns and labels:
Assay in all cases: inhibition of tumour cell growth, NCI panel, 48 h
[1] = test system: SK-MEL-2 melanoma
[2] = test system: SW-620 colon
[3] = test system: HS 578T breast
[4] = test system: LOX IMVI melanoma
[5] = test system: BT-549 breast
[6] = test system: HCT-116 colon
[7] = test system: A498 renal
[8] = test system: MCF7 breast
[9] = test system: TK-10 renal
[10] = test system: IGROV1 ovarian
[11] = test system: K-562 leukemia
[12] = test system: SNB-75 CNS
[13] = test system: HOP-92 NSCLC
[14] = test system: HCC-2998 colon
[15] = test system: DU-145 prostate
[16] = test system: HL-60(TB) leukemia
[17] = test system: RXF 393 renal

Structure (SMILES) | TGI [1] | TGI [2] | TGI [3] | TGI [4] | TGI [5] | TGI [6] | TGI [7] | TGI [8] | TGI [9] | TGI [10] | TGI [11] | TGI [12] | TGI [13] | TGI [14] | TGI [15] | TGI [16] | TGI [17]
CC(=O)O[C@H]1CC[C@@]2(C)C(=CC[C@H]3[C@@H]4C[C@H](N5CCOCC5)[C@H](OC(C)=O)[C@@]4(C)CC[C@@H]32)C1 | > 100 µM | > 100 µM | > 100 µM | > 100 µM | > 100 µM | > 100 µM | > 100 µM | > 100 µM | > 100 µM | > 100 µM | > 100 µM | > 100 µM | > 100 µM | > 100 µM | > 100 µM | > 100 µM | > 100 µM
COc1nc2nccnc2c(=O)n1C | > 10 µM | > 10 µM | > 10 µM | > 10 µM | > 10 µM | > 10 µM | > 10 µM | > 10 µM | > 10 µM | > 10 µM | > 10 µM | > 10 µM | > 10 µM | > 10 µM | > 10 µM | > 10 µM | > 10 µM
Nc1ccc(C(=O)N2CCC[C@H]2CO)c(N)c1 | > 100 µM | > 100 µM | > 100 µM | > 100 µM | > 100 µM | > 100 µM | > 100 µM | > 100 µM | > 100 µM | > 100 µM | > 100 µM | > 100 µM | > 100 µM | > 100 µM | > 100 µM | > 100 µM | > 100 µM
CC12CCC(O)CC1CCC1C2CCC2(C)C(C(=O)CC(O)C(F)(F)F)CCC12 (centres undefined) | > 100 µM | > 100 µM | > 80 µM | > 100 µM | > 100 µM | > 100 µM | 40.7 µM | > 100 µM | > 100 µM | > 100 µM | 17.4 µM | 81.1 µM | > 85.2 µM | 80 µM | > 100 µM | 47.5 µM | 29.3 µM
C[N+]12CCCCC1C(CN1C(=O)Cc3c4ccccc4c(c4ccccc34)CC1=O)CCC2 (centres undefined) | > 100 µM | > 100 µM | > 100 µM | > 100 µM | > 100 µM | > 100 µM | > 100 µM | > 100 µM | > 100 µM | > 100 µM | > 100 µM | > 100 µM | > 100 µM | > 100 µM | > 100 µM | > 100 µM | > 100 µM
[N-]=[N+]=NC1=C(c2ccccn2)C(=O)c2cccc3cccc1c23 | > 100 µM | > 100 µM | > 100 µM | > 100 µM | 67.2 µM | > 100 µM | 31.5 µM | > 100 µM | > 100 µM | > 100 µM | > 100 µM | > 100 µM | > 100 µM | > 100 µM | > 100 µM | > 100 µM | > 100 µM
CC(=O)[C@@]1(O)CC[C@H]2[C@@H]3C[C@H](C)C4=CC(=O)C=C[C@]4(C)[C@@]3(F)[C@@H](O)C[C@@]21C | > 100 µM | > 100 µM | > 100 µM | > 100 µM | > 100 µM | > 100 µM | > 100 µM | > 100 µM | > 100 µM | > 100 µM | > 100 µM | > 91.9 µM | > 100 µM | > 100 µM | > 100 µM | > 100 µM | > 100 µM
